Measurements as given in patent US20240366589A1, “NHE3-BINDING COMPOUNDS AND METHODS FOR INHIBITING PHOSPHATE TRANSPORT” (Ardelyx, Inc., priority 2013, published 2024).

What was measured:
Rat NHE3 = target: T1, Rat NHE3 (Rattus norvegicus, UniProt P26433); assay: Cell-based NHE3 activity under prompt conditions (OK cells, BCECF pH recovery), rat NHE3; details: prompt conditions
T1 construct: expressed in transfected cells; host or cells: Opossum kidney (OK) cells (ATCC), electroporation
Procedure, shortened: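 Read-out: initial rate of BCECF-reported intracellular pH recovery via Na+/H+ antiport, fitted to pIC50. Opossum kidney cells transfected with rat or human NHE3; NH4Cl prepulse with 5 μM BCECF-AM, 30 min RT; Na+-free choline buffer 10 min.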

[1] = system: absorption of sodium from the intestinal lumen; assay: Fecal form score (FFS) 16 h after oral dose in rats; assay type: in vivo, rat; details: oral gavage, 16 h post-dose, scale 1-5
Procedure, shortened: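 Fecal form was scored at 16 h post-dose on a 1–5 wetness scale (normal pellet to liquid stream), with two independent observations averaged across six rats per group. Animals were 8-week-old Sprague-Dawley rats given test compound or water orally in the late afternoon and kept in metabolic cages.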

[2] = system: absorption of sodium from the intestinal lumen; assay: Inhibition of intestinal sodium absorption: urinary sodium (uNa) 16 h after single oral dose in rats; assay type: in vivo, rat; details: oral gavage, 16 h post-dose
Procedure, shortened: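 Urinary sodium mass over the 16 h after one oral gavage dose, measured by cation-exchange ion chromatography, reported as percent of water-vehicle group; ANOVA plus Dunnett's post hoc test. Groups of six 8-week-old Sprague-Dawley rats, housed individually in metabolic cages post-dose, fed and watered freely.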

Human NHE3 = target: T2, Human NHE3 (Homo sapiens, UniProt P48764); assay: Cell-based NHE3 activity under prompt conditions (OK cells, BCECF pH recovery), human NHE3; details: prompt conditions
T2 construct: expressed in transfected cells; host or cells: Opossum kidney (OK) cells (ATCC), electroporation
T2 sequence (P48764 26-834): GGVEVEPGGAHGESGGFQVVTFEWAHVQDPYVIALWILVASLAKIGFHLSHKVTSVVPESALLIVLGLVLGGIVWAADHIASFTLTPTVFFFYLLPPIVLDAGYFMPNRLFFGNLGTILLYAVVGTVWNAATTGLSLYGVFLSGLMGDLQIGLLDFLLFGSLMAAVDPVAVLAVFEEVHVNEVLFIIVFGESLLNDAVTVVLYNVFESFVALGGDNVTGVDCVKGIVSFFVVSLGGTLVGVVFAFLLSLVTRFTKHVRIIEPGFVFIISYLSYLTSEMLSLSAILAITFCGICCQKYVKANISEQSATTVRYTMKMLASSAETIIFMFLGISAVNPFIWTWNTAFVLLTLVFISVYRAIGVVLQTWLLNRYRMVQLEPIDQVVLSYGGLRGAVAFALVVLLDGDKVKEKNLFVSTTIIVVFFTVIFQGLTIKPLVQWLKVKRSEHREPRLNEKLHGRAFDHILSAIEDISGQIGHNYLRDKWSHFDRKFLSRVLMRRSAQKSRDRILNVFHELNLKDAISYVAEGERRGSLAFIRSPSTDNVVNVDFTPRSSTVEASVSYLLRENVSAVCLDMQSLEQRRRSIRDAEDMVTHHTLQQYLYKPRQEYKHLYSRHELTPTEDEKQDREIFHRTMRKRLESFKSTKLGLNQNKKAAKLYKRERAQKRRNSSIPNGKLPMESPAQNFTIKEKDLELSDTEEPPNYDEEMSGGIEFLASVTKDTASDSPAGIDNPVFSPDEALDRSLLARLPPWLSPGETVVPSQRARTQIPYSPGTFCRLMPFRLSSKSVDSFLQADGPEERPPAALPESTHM
Method: Cell-based activity under Prompt Conditions. Rat or human NHE3-mediated Na^+-dependent H antiport was measured using a modification of the pH sensitive dye method originally reported by Paradiso (PNAS USA. 81:7436-7440, 1984). Opossum kidney (OK) cells were obtained from the ATCC and propagated per their instructions. The rat NHE3 gene (GenBank M85300) or the human NHE3 gene (GenBank NM_004174.1) was introduced into OK cells via electroporation, and cells were seeded into 96 well plates and grown overnight. Medium was aspirated from the wells, cells were washed twice with NaCl-HEPES buffer (100 mM NaCl, 50 mM HEPES, 10 mM glucose, 5 mM KCl, 2 mM CaCl2, 1 mM MgCl2, pH 7.4), then incubated for 30 min at room temperature with NH4Cl-HEPES buffer (20 mM NH4Cl, 80 mM NaCl, 50 mM HEPES, 5 mM KCl, 2 mM CaCl2, 1 mM MgCl2, pH 7.4) containing 5 μM bis(acetoxymethyl) 3,3′-(3′,6′-bis(acetoxymethoxy)-5-((acetoxymethoxy)carbonyl)-3-oxo-3H-spiro[isobenzofuran-1,9′-xanthene]-2′,7′-diyl)dipropanoate (BCECF-AM).
Cells were washed twice with Ammonium free, Na^+-free HEPES (100 mM choline, 50 mM HEPES, 10 mM glucose, 5 mM KCl, 2 mM CaCl2, 1 mM MgCl2, pH 7.4) and incubated in the same buffer for 10 minutes at room temperature to lower intracellular pH. […] Initial rates were plotted as the average 2 or more replicates, and pIC50 values were estimated using GraphPad Prism.
Cell-based activity of NHE3 Activity under ‘Prompt’ Conditions. This assay was performed as described in Example 1 (supra).

[3] = system: phosphorus and calcium levels in the urine of rats; assay: Urinary excretion of phosphate and calcium in rats (16 h overnight urine); assay type: in vivo, rat; details: rats, oral gavage, 16 h post-dose

T1 sequence (P26433 29-831): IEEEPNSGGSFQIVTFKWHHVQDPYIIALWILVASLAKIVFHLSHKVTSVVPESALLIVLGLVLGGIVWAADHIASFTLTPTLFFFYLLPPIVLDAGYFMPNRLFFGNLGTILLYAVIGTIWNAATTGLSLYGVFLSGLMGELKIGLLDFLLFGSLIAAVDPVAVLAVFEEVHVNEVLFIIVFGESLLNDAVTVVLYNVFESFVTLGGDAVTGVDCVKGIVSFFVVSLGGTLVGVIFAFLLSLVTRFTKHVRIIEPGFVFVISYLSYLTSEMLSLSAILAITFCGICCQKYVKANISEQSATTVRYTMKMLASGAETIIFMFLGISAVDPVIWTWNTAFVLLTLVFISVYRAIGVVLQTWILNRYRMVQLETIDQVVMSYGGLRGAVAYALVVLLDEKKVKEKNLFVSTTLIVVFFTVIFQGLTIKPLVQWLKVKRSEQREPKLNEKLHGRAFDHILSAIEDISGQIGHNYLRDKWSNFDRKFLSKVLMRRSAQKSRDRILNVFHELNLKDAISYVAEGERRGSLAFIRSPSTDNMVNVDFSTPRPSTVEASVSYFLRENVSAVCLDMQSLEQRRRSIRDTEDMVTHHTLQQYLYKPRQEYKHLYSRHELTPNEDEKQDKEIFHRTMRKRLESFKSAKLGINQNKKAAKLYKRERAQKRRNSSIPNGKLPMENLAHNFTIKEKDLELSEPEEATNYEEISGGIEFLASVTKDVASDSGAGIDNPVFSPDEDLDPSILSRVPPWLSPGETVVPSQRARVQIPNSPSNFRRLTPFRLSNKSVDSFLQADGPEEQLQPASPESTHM

Row | SMILES | Prompt Rat NHE3 pIC50 (Rat NHE3) | Prompt Human NHE3 pIC50 (Human NHE3) | Fecal Form Score average ([1]; dose 3 mg/kg) | Urine Na % of control ([2]; dose 3 mg/kg) [%] | Urine P % of control ([3]; dose 3 mg/kg) [%] | Fecal Form Score average ([1]; dose 10 mg/kg) | Urine Na % of control ([2]; dose 10 mg/kg) [%] | Urine P % of control ([3]; dose 10 mg/kg) [%] | also measured
1 | CC1Cc2c(Cl)cc(Cl)cc2[C@H](c2cccc(S(=O)(=O)NCCOCCOCCNC(=O)CCC(CCC(=O)NCCOCCOCCNS(=O)(=O)c3cccc([C@@H]4CN(C)Cc5c(Cl)cc(Cl)cc54)c3)(CCC(=O)NCCOCCOCCNS(=O)(=O)c3cccc([C@@H]4CN(C)Cc5c(Cl)cc(Cl)cc54)c3)NC(=O)N[C@@H](CC(=O)O)C(=O)O)c2)C1 (some centres unmarked) [compound 145] |  |  | 3 | 41 | 51 |  |  |  | IC50 (Rat NHE3; read-out: Prompt Rat NHE3 pIC50 (converted)): 25.1 nM; IC50 (Human NHE3; read-out: Prompt Human NHE3 pIC50 (converted)): 20 nM
2 | CN1Cc2c(Cl)cc(Cl)cc2[C@H](c2cccc(S(=O)(=O)NCCOCCOCCNC(=O)CCC(CCC(=O)NCCOCCOCCNS(=O)(=O)c3cccc([C@@H]4CN(C)Cc5c(Cl)cc(Cl)cc54)c3)(CCC(=O)NCCOCCOCCNS(=O)(=O)c3cccc([C@@H]4CN(C)Cc5c(Cl)cc(Cl)cc54)c3)NC(N)=O)c2)C1 [compound 133] | 6.50 | 7.30 | 2 | 23 | 67 |  |  |  | 
3 | CN(CC(=O)NCCOCCOCCNC(=O)NCCOCCOCCOCCN1CCN(c2ccc(-c3nc(N=C(N)N)nc4ccc(Cl)cc34)cc2)CC1)CC(=O)NCCOCCOCCNC(=O)NCCOCCOCCOCCN1CCN(c2ccc(-c3nc(N=C(N)N)nc4ccc(Cl)cc34)cc2)CC1 [compound 45] | 7.50 | 7.90 |  |  |  | 1 | 97 | 109 | 
4 | C/C(=C\c1cc(F)c(Oc2ccc(S(=O)(=O)NCCOCCOCCOCCNC(=O)NCCOCCOCCNC(=O)NCCOCCOCCOCCNS(=O)(=O)c3ccc(Oc4c(F)cc(/C=C(\C)C(=O)N=C(N)N)cc4F)cc3)cc2)c(F)c1)C(=O)N=C(N)N [compound 14] | 7.00 | 7.60 |  |  |  | 1 | 51 | 59 | 
5 | NCCOCCOCCNS(=O)(=O)c1ccc(O[C@H]2c3ccccc3C[C@@H]2N2CCCCC2)cc1 [compound 60] | 6.35 | 7.10 |  |  |  | 1 | 67 | 92 | 
6 | N=C(N)Nc1nc(-c2ccc(N3CCN(CCOCCOCCOCCNC(=O)NCCOCCOCCNC(=O)NCCOCCOCCOCCN4CCN(c5ccc(-c6nc(NC(=N)N)nc7ccc(Cl)cc67)cc5)CC4)CC3)cc2)c2cc(Cl)ccc2n1 [compound 20] | 7.30 | 7.20 |  |  |  | 1 | 86 | 81 | 
7 | CN1Cc2c(Cl)cc(Cl)cc2[C@H](c2cccc(S(=O)(=O)NCCOCCOCCNC(=O)CCC(CCC(=O)NCCOCCOCCNS(=O)(=O)c3cccc([C@@H]4CN(C)Cc5c(Cl)cc(Cl)cc54)c3)(CCC(=O)NCCOCCOCCNS(=O)(=O)c3cccc([C@@H]4CN(C)Cc5c(Cl)cc(Cl)cc54)c3)NC(=O)CCC(=O)O)c2)C1 [compound 123] | 7.50 | 7.80 | 3 | 12 | 88 |  |  |  | Fecal Form Score average ([1]; dose 1 mg/kg): 1; Urine Na % of control ([2]; dose 1 mg/kg): 49%; Urine P % of control ([3]; dose 1 mg/kg): 124%
8 | C/C(=C\c1cc(F)c(Oc2ccc(S(=O)(=O)NCCOCCOCCOCCN)cc2)c(F)c1)C(=O)N=C(N)N [compound 4] | 6.90 | 6.80 |  |  |  | 1 | 84 | 106 | 
9 | NC(N)=Nc1nc(-c2cccc(N3CCN(CCOCCOCCNC(=O)NCCOCCOCCNC(=O)NCCCCNC(=O)NCCOCCOCCNC(=O)NCCOCCOCCN4CCN(c5cccc(-c6nc(N=C(N)N)nc7ccc(Cl)cc67)c5)CC4)CC3)c2)c2cc(Cl)ccc2n1 [compound 28] | 7.60 | 8.10 |  |  |  | 1 | 83 | 129 | 

Second part, led by results:

Row | Prompt Rat NHE3 pIC50 (Rat NHE3) | Prompt Human NHE3 pIC50 (Human NHE3) | SMILES | Fecal Form Score average ([1]; dose 3 mg/kg) | Urine Na % of control ([2]; dose 3 mg/kg) [%] | Urine P % of control ([3]; dose 3 mg/kg) [%] | Fecal Form Score average ([1]; dose 10 mg/kg) | Urine Na % of control ([2]; dose 10 mg/kg) [%] | Urine P % of control ([3]; dose 10 mg/kg) [%] | also measured
10 | 7.30 | 6.60 | CN1Cc2c(Cl)cc(Cl)cc2[C@H](c2cccc(S(=O)(=O)NCCOCCOCCNC(=O)CCC(CCCNC(=O)NCCOCCOCCNS(=O)(=O)c3cccc([C@@H]4CN(C)Cc5c(Cl)cc(Cl)cc54)c3)(CCC(=O)NCCOCCOCCNS(=O)(=O)c3cccc([C@@H]4CN(C)Cc5c(Cl)cc(Cl)cc54)c3)NC(=O)NCP(=O)(O)O)c2)C1 [compound 162] |  |  |  |  |  |  | Fecal Form Score average ([1]; dose 2 mg/kg): 2; Urine Na % of control ([2]; dose 2 mg/kg): 130%; Urine P % of control ([3]; dose 2 mg/kg): 50%
11 | 6.50 | 6.20 | CC(=O)C(CCC(=O)NCCOCCOCCNS(=O)(=O)c1cccc([C@@H]2CN(C)Cc3c(Cl)cc(Cl)cc32)c1)(CCC(=O)NCCOCCOCCNS(=O)(=O)c1cccc([C@@H]2CN(C)Cc3c(Cl)cc(Cl)cc32)c1)CCC(=O)NCCOCCOCCNS(=O)(=O)c1cccc([C@@H]2CN(C)Cc3c(Cl)cc(Cl)cc32)c1 [compound 169] | 2 | 42 | 64 |  |  |  | 
12 | <5.00 | 8.20 | O=C(NCCCCNC(=O)NCCOCCOCCNS(=O)(=O)c1ccc(O[C@H]2c3cc(Cl)cc(F)c3C[C@@H]2N2CC[C@@H](O)C2)cc1)NCCOCCOCCNS(=O)(=O)c1ccc(O[C@H]2c3cc(Cl)cc(F)c3C[C@@H]2N2CC[C@@H](O)C2)cc1 [compound 165] |  |  |  | 1 | 104 | 68 | 
13 | 8.10 | 7.10 | CN1Cc2c(Cl)cc(Cl)cc2[C@H](c2cccc(S(=O)(=O)NCCOCCOCCNC(=O)CCC(CCC(=O)NCCOCCOCCNS(=O)(=O)c3cccc([C@@H]4CN(C)Cc5c(Cl)cc(Cl)cc54)c3)(CCC(=O)NCCOCCOCCNS(=O)(=O)c3cccc([C@@H]4CN(C)Cc5c(Cl)cc(Cl)cc54)c3)NC(=O)N(C)C[C@H](O)[C@@H](O)[C@H](O)[C@H](O)CO)c2)C1 [compound 142] | 2 | 45 | 38 |  |  |  | 
